Measured values from US20220048987A1, “METHOD OF TREATMENT TO PREVENT OR REVERSE AGE-ASSOCIATED INFLAMMATION, COGNITIVE DECLINE, AND NEURODEGENERATION” (The Board of Trustees of the Leland Stanford Junior …, priority 2020, published 2022).

What was measured:
Assay type in all cases: cell-based
[1] = system: human monocyte-derived macrophages (human MDMs); assay: Real-time oxygen consumption rate (OCR) and ECAR (Seahorse) in human MDMs; conditions: 20 h
Experimental: (§1) Cells were plated at 1.8×10^6 cells per well in a Seahorse XF24 Cell Culture Microplate (Agilent). Cells were then treated with indicated inhibitors or agonists in each experiment for 20 h. Cells were washed twice with Agilent Seahorse XF Media (Agilent) supplemented with 1 mM pyruvate, 2 mM L-glutamine, and 10 mM D-glucose; a final volume of 525 μl was placed in each well. Cells were then incubated in a 0% CO2 chamber at 37° C. for 1 h before being placed into a Seahorse XFe24 Analyzer (Agilent). For OCR and ECAR mitostress test experiments, cells were treated with 1 μM oligomycin, 2 μM carbonyl cyanide p-trifluoromethoxyphenylhydrazone (FCCP), and 0.5 μM rotenone/antimycin (indicated by three black arrows in each seahorse trace). For mitoFlex Fuel test experiments, cells were treated with UK5099 (200 μM) and BPTES (200 μM)/Etomoxir (80 μM). A total of three OCR and pH measurements were taken after each compound was administered. All Seahorse experiments were repeated at least three times unless otherwise indicated. All OCR and ECAR data were normalized to cell number per well using CyQUANT (ThermoFisher Scientific, Waltham, Mass., USA).
Peripheral blood mononuclear cells from de-identified healthy donors (young<35 years old, aged>65 years old) were obtained from the Stanford Blood Center and transferred to 50 ml conical tubes. Samples were diluted with 20 ml PBS and layered onto 10 ml of Ficoll-Paque (GE Healthcare) using a Pasteur pipette. Tubes were centrifuged at 1,500 r.p.m. for 25 min without brake at 20° C. The mononuclear cell layer was transferred to a new 50 ml conical tube, resuspended in 50 ml 1×PBS and centrifuged at 1500 r.p.m. for 10 min, repeated twice. After centrifugation, monocytes were isolated using a Monocyte Isolation Kit, human (MACS; Miltenyi Biotech). Cells were then plated 10×10^6 per 10-cm petri dish and differentiated for 7 days in Roswell Park Memorial Institute (RPMI) media supplemented with 10% FBS, 1% penicillin-streptomycin, and 50 ng ml^−1 M-CSF (Peprotech).

mouse astrocytes = assay: OCR and ECAR (Seahorse) in mouse astrocytes; conditions: primary mouse astrocytes, 100 nM, 20 h
Experimental: as §1
Primary astrocyte cultures were prepared from cerebral cortices of postnatal day 1-2 C57BL/6J mice. […]

[2] = system: mouse hippocampal neurons; assay: OCR and ECAR (Seahorse) in mouse hippocampal neurons; conditions: primary mouse hippocampal neurons, 100 nM, 20 h
Experimental: as §1
Hippocampi were dissected from embryonic Day 17.5 mice embryos, dissociated using trypsin (2 mg/ml) and DNase I (0.6 mg/ml), and plated at a density of 100, 000 cells per well in Seahorse XF24 culture plate coated with poly-L-lysine. […]

[3] = system: mouse peritoneal macrophages; assay: OCR and ECAR (Seahorse) in mouse peritoneal macrophages; conditions: aged (18-20 mo) mouse peritoneal macrophages, 100 nM, 20 h
Experimental: as §1, with “USA). […]” for “USA).”
Cd11bCre, and WT mice. Mice were injected intraperitoneally with 1.5 ml 3% (w/v) thioglycolate medium (BD Biosciences), and primary macrophages were isolated 3-4 days later by flushing with ice-cold 1×PBS buffer (Corning). […]

human MDMs = assay: Chemokine and cytokine multiplex assay, supernatant of human MDMs; conditions: aged (>65 yo) human MDMs, stimulated 8 h later
Experimental: Hippocampal lysates or mouse plasma were stored at −80° C. and cytokine analysis was carried out at the Human Immune Monitoring Core (Stanford University) or Eve Technologies (Calgary, Alberta, Canada) using Luminex mouse 39-plex kits and Human 71-plex kits. Plates were read using a Luminex LabMap200 instrument or a MSD Chemiluminescence instrument with a lower bound of 100 beads per sample per measured cytokine. Each sample was tested in triplicate. Mean fluorescence intensity (MFI) was averaged over duplicate wells for each cytokine per sample on each plate. All were transcardially perfused prior to isolation of hippocampi and other brain tissue.
Peripheral blood mononuclear cells from de-identified healthy donors (young<35 years old, aged>65 years old) were obtained from the Stanford Blood Center and transferred to 50 ml conical tubes. […]
Plasmid-containing human GYS1 shRNA (Table 3) or Scr (2 μg) (HuSH shRNA shGYS1 Lenti Cloning Vector [pGFP-C-shLenti]) were incubated with a mixture of nucleofection solution and P4 primary cell supplement (82 μl:18 μl nucleofection solution:supplement) and placed in nucleofection cuvettes. […] Cells were then plated in 10-cm plates and incubated 37° C. under 5% CO2 for 8 h before GYS1 protein expression was analyzed by quantitative immunoblotting.

Compound | ECAR (extracellular acidification rate, glycolysis) ([1]; human MDMs, dose response) | basal OCR (oxygen consumption) ([1]; human MDMs, dose response) | OCR and ECAR (mouse astrocytes) | OCR and ECAR [2] | basal respiration and ECAR [3] | OCR in GYS1-deficient aged human MDMs ([1]; aged (>65 yo) human MDMs nucleofected with shGYS1, 100 nM, 8 h post nucleofection) | bioenergetic or immune factor phenotypes of aged human MDMs lacking GYS1 ([1]; aged human MDMs + GYS1 shRNA, 100 nM) | immune phenotypes (immune factors in supernatant) of aged human MDMs + GYS1 shRNA (human MDMs)
CCCCC[C@H](O)/C=C/[C@H]1[C@H](O)CC(=O)[C@@H]1C/C=C\CCCC(=O)O [PGE2, prostaglandin E2] | decreased glycolysis | suppressed oxygen consumption | no significant effects | no significant effects |  |  |  | 
NS(=O)(=O)c1ccc(-n2nc(C(F)(F)F)cc2-c2ccc(Cl)cc2)cc1 [SC236] |  |  |  |  | partially phenocopies EP2 receptor antagonism |  |  | 
CCCC1([C@H](O)C/C=C/[C@H]2[C@H](O)CC(=O)[C@@H]2CCCCCCC(=O)OC)CCC1 [butaprost] |  |  | no significant effects | no significant effects |  | refractory to treatment | did not alter | refractory to further EP2 receptor activation
